Test results as given in US8304447B2, “2-acylaminopropoanol-type glucosylceramide synthase inhibitors” (Genzyme Corporation, priority 2007, dated 2012).
pIC50: −log10 of the molar value. Read-outs that look alike come from different tables or passages of the source.

Tested on: GM3
Experiment: GM3 Elisa assay
Format: cell-based
Details: B16-FO cells, 2 days incubation, read-out: IC50_uM_Mean
Summary of the method: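 Cellular GM3 ELISA: fixed cells probed with monoclonal anti-GM3 (NeuAc), HRP-conjugated anti-IgM and fluorogenic Quantablu substrate, read at Ex 325/Em 420. Cells were B16-FO, treated 2 days after a 6 h attachment on collagen-coated wells.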

| SMILES | pIC50 (48 h, Table 2) | also measured |
| --- | --- | --- |
| COCCc1ccc(OCCC(=O)N[C@H](CN2CCCC2)[C@H](O)c2ccc3c(c2)OCCO3)cc1 [Compound 202, N-((1R, R)-1-(2,3-dihydrobenzo[β][1,4]dioxin-6-yl)-1-hydroxy-3-(pyrrolidin-1-yl)propan-2-yl)-3-(4-(2-methoxyethyl)phenoxy)propanamide (2R, R)-2,3-dihydroxysuccinate] |  | pIC50 (48 h, Table 1): 6.00 to 7.00 |
| O=C(N[C@H](CN1CCCC1)[C@H](OC(=O)c1ccc(-c2ccccn2)s1)c1ccc2c(c1)OCCO2)c1ccc(-c2ccccn2)s1 [Compound 242] | 5.00 to 5.52 |  |
| COc1ccc(CCC(=O)N[C@H](CN2CCCC2CN2CCCC2)[C@H](O)c2ccc3c(c2)OCCO3)cc1Cl (stereo partly shown) [Compound 245] | 5.00 to 5.52 |  |
| COc1ccc([C@@H](O)[C@@H](CN2CCCC2)NC(=O)OCc2ccccc2)cc1 [Compound 246] |  | pIC50 (Table 2): 5.52 to 6.00 |
| COc1ccc([C@@H](O)[C@@H](CN2CCCC2)NC(=O)Nc2ccc(OC(F)(F)F)cc2)cc1 [Compound 249] | 5.52 to 6.00 |  |
| O=C(CCCc1nc(-c2ccc(Cl)cc2)no1)N[C@H](CN1CCCC1)[C@H](OC(=O)CCCc1nc(-c2ccc(Cl)cc2)no1)c1ccc2c(c1)OCCO2 [Compound 253] | 6.00 to 7.00 |  |
| O=C(CCCc1nc(-c2cccs2)no1)N[C@H](CN1CCCC1)[C@H](OC(=O)CCCc1nc(-c2cccs2)no1)c1ccc2c(c1)OCCO2 [Compound 254] | 6.00 to 7.00 |  |
| O=C(Cc1csc(-c2cccc(C(F)(F)F)c2)n1)N[C@H](CN1CCCC1)[C@H](OC(=O)Cc1csc(-c2cccc(C(F)(F)F)c2)n1)c1ccc2c(c1)OCCO2 [Compound 255] | 5.52 to 6.00 |  |
| COc1ccc(CNC(=O)N(C)[C@H](CN2CCCC2)[C@H](O)c2ccc3c(c2)OCCO3)cc1 [Compound 256] | 6.00 to 7.00 |  |
| COc1ccc(OCCC(=O)N[C@H](CN2CCOCC2)[C@H](O)c2ccc3c(c2)OCCO3)cc1 [Compound 257, N-((1R,2R)-1-(2,3-dihydrobenzo[β][1,4]dioxin-6-yl)-1-hydroxy-3-morpholinopropan-2-yl)-3-(4-methoxyphenoxy)propanamide] | 5.00 to 5.52 |  |
| O=C(Cc1ccc(OC(F)(F)F)cc1)N[C@H](CN1CCOCC1)[C@H](O)c1ccc2c(c1)OCCO2 [Compound 258] | 5.00 to 5.52 |  |
| COc1ccc(OCCC(=O)N[C@H](CN2CCCCC2)[C@H](O)c2ccc3c(c2)OCCO3)cc1 [Compound 261, N-((1R,2R)-1-(2,3-dihydrobenzo[β][1,4]dioxin-6-yl)-1-hydroxy-3-(piperidin-1-yl)propan-2-yl)-3-(4-methoxyphenoxy)propanamide] | 6.00 to 7.00 |  |
| COc1ccc(CCCC(=O)N[C@H](CN2CCCC2)[C@H](O)c2ccc(OC)cc2)cc1 [Compound 263] | 6.00 to 7.00 |  |
| COc1ccc([C@@H](O)[C@@H](CN2CCCC2)NC(=O)CCCCCC(C)(C)OC)cc1 [Compound 273] | 6.00 to 7.00 |  |
| COc1ccc(OCCC(=O)N[C@H](CN2CCCC2)[C@H](O)c2ccc(OC)c(OC)c2)cc1 [Compound 274] | 5.52 to 6.00 |  |
| COc1ccc(C(=O)CCCCCC(=O)N[C@H](CN2CCCC2)[C@H](O)c2ccc(OC)c(OC)c2)cc1 [Compound 276] | 6.00 to 7.00 |  |
| COc1ccc([C@@H](O)[C@@H](CN2CCCC2)NC(=O)CCCCCC(C)(C)OC)cc1OC [Compound 277] | 5.00 to 5.52 |  |
| COc1ccc([C@@H](O)[C@@H](CN2CCCC2)NC(=O)CCCOc2ccc(C(C)=O)cc2)cc1OC [Compound 278] | < 5.00 |  |
| COc1ccc([C@@H](O)[C@@H](CN2CCCC2)NC(=O)CCCCCC(C)=O)cc1 [Compound 279] | 5.52 to 6.00 |  |
| COc1ccc(C(=O)CCCC(=O)N[C@H](CN2CCCC2)[C@H](O)c2ccc3c(c2)OCCO3)cc1OC [Compound 282, N-((1R,2R)-1-(2,3-dihydrobenzo[β][1,4]dioxin-6-yl)-1-hydroxy-3-(pyrrolidin-1-yl)propan-2-yl)-5-(3,4-dimethoxyphenyl)-5-oxopentanamide] | 5.52 to 6.00 |  |
| C[C@@H](NC(=O)N[C@H](CN1CCCC1)[C@H](O)c1ccc2c(c1)OCCO2)c1ccccc1 [Compound 286, 1-((1R,2R)-1-(2,3-dihydrobenzo[β][1,4]dioxin-6-yl)-1-hydroxy-3-(pyrrolidin-1-yl)propan-2-yl)-3-(®-1-phenylethyl)urea] | 5.00 to 5.52 |  |
| O=C(NCCc1cccs1)N[C@H](CN1CCCC1)[C@H](O)c1ccc2c(c1)OCCO2 [Compound 287, 1-((1R,2R)-1-(2,3-dihydrobenzo[β][1,4]dioxin-6-yl)-1-hydroxy-3-(pyrrolidin-1-yl)propan-2-yl)-3-(2-(thiophen-2-yl)ethyl)urea] | 5.52 to 6.00 |  |
| COc1ccc([C@@H](O)[C@@H](CN2CCCC2)NC(=O)OCc2ccccc2)cc1 [Compound 289, benzyl (1R,2R)-1-hydroxy-1-(4-methoxyphenyl)-3-(pyrrolidin-1-yl)propan-2-ylcarbamate] |  | pIC50 (Table 2): 6.00 to 7.00 |

More lines, main results first:

| pIC50 (48 h, Table 2) | SMILES | also measured |
| --- | --- | --- |
| ≥ 7.00 | CC(=O)O[C@H](c1ccc2c(c1)OCCO2)[C@@H](CN1CCCC1)NC(=O)NCc1ccccc1 [Compound 243] |  |
| ≥ 7.00 | O=C(NCc1ccc(Cl)cc1)N[C@H](CN1CCCC1CN1CCCC1)[C@H](O)c1ccc2c(c1)OCCO2 (stereo partly shown) [Compound 244] |  |
| ≥ 7.00 | COc1ccc([C@@H](O)[C@@H](CN2CCCC2)NC(=O)CCOc2ccc(C)cc2)cc1 [Compound 247, N-((1R,2R)-1-hydroxy-1-(4-methoxyphenyl)-3-(pyrrolidin-1-yl)propan-2-yl)-3-(p-tolyloxy)propanamide] |  |
| 6.00 to 7.00 | COc1ccc([C@@H](OC(=O)CCOc2ccc(C)cc2)[C@@H](CN2CCCC2)NC(=O)CCOc2ccc(C)cc2)cc1 [Compound 248] |  |
| 6.00 to 7.00 | COc1ccc([C@@H](OC(=O)Cc2ccc(C(F)(F)F)cc2)[C@@H](CN2CCCC2)NC(=O)Cc2ccc(C(F)(F)F)cc2)cc1 [Compound 250] |  |
| 6.00 to 7.00 | COc1ccc([C@@H](O)[C@@H](CN2CCCC2)NC(=O)Cc2ccc(C(F)(F)F)cc2)cc1 [Compound 251, N-((1R,2R)-1-hydroxy-1-(4-methoxyphenyl)-3-(pyrrolidin-1-yl)propan-2-yl)-2-(4-(trifluoromethyl)phenyl)acetamide] |  |
| 6.00 to 7.00 | Cc1ccc(OCCC(=O)N[C@H](CN2CCCC2)[C@H](OC(=O)CCOc2ccc(C)cc2)c2ccc3c(c2)OCCO3)cc1 [Compound 252] |  |
| ≥ 7.00 | COc1ccc(OCCC(=O)N[C@H](CN2CCCC2)[C@H](O)c2ccc3c(c2)OCO3)cc1 [Compound 259] |  |
| ≥ 7.00 | CCCCc1ccc([C@@H](O)[C@@H](CN2CCCC2)NC(=O)CCOc2ccc(OC)cc2)cc1 [Compound 260] |  |
| ≥ 7.00 | COc1ccc(OCCC(=O)N[C@H](CN2CCCC2)[C@H](O)c2ccc(OC)cc2)cc1 [Compound 262, N-[2-Hydroxy-2-(4-methoxy-phenyl)-1-pyrrolidin-1-ylmethyl-ethyl]-3-(4-methoxy-phenoxy)-propionamide] |  |
| ≥ 7.00 | Cc1ccc(C(=O)CCC(=O)N[C@H](CN2CCCC2)[C@H](O)c2ccc3c(c2)CCCC3)cc1 [Compound 264] |  |
| ≥ 7.00 | CC(C)Oc1ccc(C(=O)CCCC(=O)N[C@H](CN2CCCC2)[C@H](O)c2ccc3c(c2)OCO3)cc1 [Compound 265, N-((1R,2R)-1-(benzo[ε][1,3]-dioxol-5-yl)-1-hydroxy-3-(pyrrolidin-1-yl)propan-2-yl)-5-(4-isopropoxyphenyl)-5-oxopentanamide (2S,3S)-2,3-dihydroxysuccinate] |  |
| ≥ 7.00 | CC(C)Oc1ccc(C(=O)CCCCC(=O)N[C@H](CN2CCCC2)[C@H](O)c2ccc3c(c2)OCO3)cc1 [Compound 266] |  |
| ≥ 7.00 | COc1ccc(C(=O)CCCCC(=O)N[C@H](CN2CCCC2)[C@H](O)c2ccc3c(c2)OCO3)cc1 [Compound 267, N-((1R,2R)-1-(benzo[δ][1,3]dioxol-5-yl)-1-hydroxy-3-(pyrrolidin-1-yl)propan-2-yl)-6-(4-methoxyphenyl)-6-oxohexanamide (2S,3S)-2,3-dihydroxysuccinate] |  |
| ≥ 7.00 | CC(C)Oc1ccc(C(=O)CCCCCC(=O)N[C@H](CN2CCCC2)[C@H](O)c2ccc3c(c2)OCO3)cc1 [Compound 268, N-((1R,2R)-1-(benzo[δ][1,3]dioxol-5-yl)-1-hydroxy-3-(pyrrolidin-1-yl)propan-2-yl)-7-(4-isopropoxyphenyl)-7-oxoheptanamide (2S,3S)-2,3-dihydroxysuccinate] |  |
| ≥ 7.00 | COc1ccc(C(=O)CCCCC(=O)N[C@H](CN2CCCC2)[C@H](O)c2ccc(OC)cc2)cc1 [Compound 269] |  |
| ≥ 7.00 | COc1ccc([C@@H](O)[C@@H](CN2CCCC2)NC(=O)CCCC(=O)c2ccc(OC(C)C)cc2)cc1 [Compound 270, 5-(4-Isopropoxy-phenyl)-5-oxo-pentanoic acid [2-hydroxy-2-(4-methoxy-phenyl)-1-pyrrolidin-1-ylmethyl-ethyl]amide] |  |
| ≥ 7.00 | COc1ccc([C@@H](O)[C@@H](CN2CCCC2)NC(=O)CCCCCC(=O)c2ccc(OC(C)C)cc2)cc1 [Compound 271] |  |
| ≥ 7.00 | COc1ccc([C@@H](O)[C@@H](CN2CCCC2)NC(=O)CCCCC(=O)c2ccc(OC(C)C)cc2)cc1 [Compound 272] |  |
| ≥ 7.00 | COC(=O)CO[C@H](c1ccc2c(c1)OCCO2)[C@@H](CN1CCCC1)NC(=O)CCOc1ccc(OC)cc1 [Compound 275] |  |
| ≥ 7.00 | Cc1ccc(C(=O)CCCC(=O)N[C@H](CN2CCCC2)[C@H](O)c2ccc3c(c2)OCCO3)cc1 [Compound 283, N-((1R,2R)-1-(2,3-dihydrobenzo[b][1,4]dioxin-6-yl)-1-hydroxy-3-(pyrrolidin-1-yl)propan-2-yl)-5-oxo-5-p-tolylpentanamide] |  |
| ≥ 7.00 | CC(C)Oc1ccc(C(=O)CCCC(=O)N[C@H](CN2CCCC2)[C@H](O)c2ccc3c(c2)OCCO3)cc1 [Compound 284, N-((1R,2R)-1-(2,3-dihydrobenzo[β][1,4]dioxin-6-yl)-1-hydroxy-3-(pyrrolidin-1-yl)propan-2-yl)-5-(4-isopropoxyphenyl)-5-oxopentanamide] |  |
| ≥ 7.00 | COc1ccc(C(=O)CCCCCC(=O)N[C@H](CN2CCCC2)[C@H](O)c2ccc(OC)cc2)cc1 [Compound 285, 7-(4-Methoxy-phenyl)-7-oxo-heptanoic acid [2-hydroxy-2-(4-methoxy-phenyl)-1-pyrrolidin-1-ylmethyl-ethyl]-amide] |  |
